Columns and labels:
[1] = biological target: Beta-3 adrenergic receptor (Homo sapiens, UniProt P13945); assay: DRUGMATRIX: Adrenergic beta3 radioligand binding (ligand: [125I] Cyanopindolol); format: cell membranes, HEK293, Membrane; details: Not Active = under 50% inhibition at 10 µM
B2 bradykinin receptor = biological target: T1, B2 bradykinin receptor (Homo sapiens, UniProt P30411); format: cell membranes, Membrane; details: chem-1; note: in other assays of this panel Not Active means under 50% inhibition at 10 µM
T1 sequence (P30411 whole entry): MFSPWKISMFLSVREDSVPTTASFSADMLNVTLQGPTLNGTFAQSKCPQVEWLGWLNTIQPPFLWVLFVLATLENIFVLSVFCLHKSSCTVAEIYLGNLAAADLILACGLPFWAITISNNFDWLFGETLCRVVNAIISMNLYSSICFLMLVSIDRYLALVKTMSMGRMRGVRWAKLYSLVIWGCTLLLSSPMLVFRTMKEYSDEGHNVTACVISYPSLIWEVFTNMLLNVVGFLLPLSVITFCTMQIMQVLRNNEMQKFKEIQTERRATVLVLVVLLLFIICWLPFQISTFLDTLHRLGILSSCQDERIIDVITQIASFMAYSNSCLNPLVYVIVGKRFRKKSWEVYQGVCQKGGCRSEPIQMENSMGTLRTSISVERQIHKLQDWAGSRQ

[2] = DRUGMATRIX: Imidazoline I2, Central radioligand binding (ligand: [3H] Idazoxan); format: cell membranes, Rattus norvegicus, Wistar, Cerebral cortex, Membrane; details: Not Active = under 50% inhibition at 10 µM
[3] = biological target: T2, Muscarinic acetylcholine receptor M4 (Homo sapiens, UniProt P08173); format: cell membranes, CHO-K1, Membrane; note: in other assays of this panel Not Active means under 50% inhibition at 10 µM
T2 sequence (P08173 whole entry): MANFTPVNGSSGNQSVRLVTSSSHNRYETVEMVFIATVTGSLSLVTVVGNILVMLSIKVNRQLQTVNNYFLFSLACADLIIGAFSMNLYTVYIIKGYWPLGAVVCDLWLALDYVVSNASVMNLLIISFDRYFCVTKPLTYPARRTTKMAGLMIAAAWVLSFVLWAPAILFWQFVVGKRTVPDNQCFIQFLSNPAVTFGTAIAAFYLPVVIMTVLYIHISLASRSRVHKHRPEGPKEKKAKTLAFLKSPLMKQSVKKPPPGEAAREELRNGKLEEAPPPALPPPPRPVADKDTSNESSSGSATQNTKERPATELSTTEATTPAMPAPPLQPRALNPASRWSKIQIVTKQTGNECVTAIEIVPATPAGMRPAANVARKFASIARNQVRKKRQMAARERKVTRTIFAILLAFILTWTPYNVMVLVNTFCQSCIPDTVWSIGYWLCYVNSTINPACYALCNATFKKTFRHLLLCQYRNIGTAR

[4] = biological target: Delta-type opioid receptor (Homo sapiens, UniProt P41143); format: cell membranes, HEK293, Membrane; note: in other assays of this panel Not Active means under 50% inhibition at 10 µM
Delta-type opioid receptor, sequence (P41143 whole entry): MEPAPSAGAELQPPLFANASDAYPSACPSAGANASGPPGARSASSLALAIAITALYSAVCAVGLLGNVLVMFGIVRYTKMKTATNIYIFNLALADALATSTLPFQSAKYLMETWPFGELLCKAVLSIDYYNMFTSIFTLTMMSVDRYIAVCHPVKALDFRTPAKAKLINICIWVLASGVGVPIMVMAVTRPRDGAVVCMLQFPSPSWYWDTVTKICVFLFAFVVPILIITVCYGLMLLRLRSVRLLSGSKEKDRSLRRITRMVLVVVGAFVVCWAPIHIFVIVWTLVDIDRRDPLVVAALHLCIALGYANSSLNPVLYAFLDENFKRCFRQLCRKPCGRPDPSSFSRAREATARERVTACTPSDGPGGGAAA

[5] = biological target: T3, Receptor-type tyrosine-protein phosphatase C (Homo sapiens, UniProt P08575); design: species or system Escherichia coli;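 note: inhibition of CD45 enzyme activity measured using DiFMUP as substrate; in other assays of this panel Not Active means under 50% inhibition at 10 µM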
T3 sequence (P08575 whole entry): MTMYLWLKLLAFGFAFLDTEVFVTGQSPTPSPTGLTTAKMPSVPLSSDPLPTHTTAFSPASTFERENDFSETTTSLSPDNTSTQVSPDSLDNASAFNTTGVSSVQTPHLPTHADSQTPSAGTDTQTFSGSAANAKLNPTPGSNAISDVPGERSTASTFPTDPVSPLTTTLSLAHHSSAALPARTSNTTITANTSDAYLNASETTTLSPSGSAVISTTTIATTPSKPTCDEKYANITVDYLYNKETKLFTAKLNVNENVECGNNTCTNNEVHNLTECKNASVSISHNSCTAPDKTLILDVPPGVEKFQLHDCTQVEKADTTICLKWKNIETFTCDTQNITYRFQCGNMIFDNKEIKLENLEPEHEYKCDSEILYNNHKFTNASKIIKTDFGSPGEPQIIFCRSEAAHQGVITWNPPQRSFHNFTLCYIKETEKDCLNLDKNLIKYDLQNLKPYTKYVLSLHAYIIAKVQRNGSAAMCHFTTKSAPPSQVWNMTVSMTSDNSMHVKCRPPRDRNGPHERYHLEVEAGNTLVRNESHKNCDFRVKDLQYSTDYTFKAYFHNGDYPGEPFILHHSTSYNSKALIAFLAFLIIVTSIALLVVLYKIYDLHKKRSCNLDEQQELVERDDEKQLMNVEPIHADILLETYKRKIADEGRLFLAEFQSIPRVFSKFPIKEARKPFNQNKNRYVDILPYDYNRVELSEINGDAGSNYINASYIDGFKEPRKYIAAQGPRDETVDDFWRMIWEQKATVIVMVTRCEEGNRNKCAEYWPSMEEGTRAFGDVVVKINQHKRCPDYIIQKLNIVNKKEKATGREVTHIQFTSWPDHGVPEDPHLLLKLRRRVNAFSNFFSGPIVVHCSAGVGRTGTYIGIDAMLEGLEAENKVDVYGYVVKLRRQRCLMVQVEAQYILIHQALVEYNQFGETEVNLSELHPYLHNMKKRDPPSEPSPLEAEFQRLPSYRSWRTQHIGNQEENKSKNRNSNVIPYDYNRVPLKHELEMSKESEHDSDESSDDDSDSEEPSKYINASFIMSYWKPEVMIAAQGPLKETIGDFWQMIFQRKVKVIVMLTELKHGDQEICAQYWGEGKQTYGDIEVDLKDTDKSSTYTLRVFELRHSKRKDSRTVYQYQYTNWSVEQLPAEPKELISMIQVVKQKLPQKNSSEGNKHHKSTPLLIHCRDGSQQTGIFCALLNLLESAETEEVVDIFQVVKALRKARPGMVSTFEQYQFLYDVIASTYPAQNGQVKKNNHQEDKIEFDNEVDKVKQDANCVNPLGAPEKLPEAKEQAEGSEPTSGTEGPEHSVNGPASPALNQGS

Beta-3 adrenergic receptor, sequence (P13945 whole entry): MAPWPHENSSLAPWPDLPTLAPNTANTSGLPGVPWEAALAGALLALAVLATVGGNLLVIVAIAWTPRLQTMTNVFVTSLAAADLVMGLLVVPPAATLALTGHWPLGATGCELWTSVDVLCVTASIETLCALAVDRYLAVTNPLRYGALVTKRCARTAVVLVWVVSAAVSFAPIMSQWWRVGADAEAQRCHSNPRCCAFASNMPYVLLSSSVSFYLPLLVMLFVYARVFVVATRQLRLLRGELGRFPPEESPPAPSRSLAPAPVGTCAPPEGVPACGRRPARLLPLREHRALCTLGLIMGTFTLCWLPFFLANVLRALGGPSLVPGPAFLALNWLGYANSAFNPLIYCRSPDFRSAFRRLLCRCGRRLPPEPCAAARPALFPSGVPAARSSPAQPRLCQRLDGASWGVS

Compound	IC50 ([1]; hek293)	Ki ([1]; hek293)	IC50 (B2 bradykinin receptor)	Ki (B2 bradykinin receptor)	IC50 [2]	Ki [2]	IC50 ([3]; cho-k1)	Ki ([3]; cho-k1)	IC50 ([4]; hek293)	Ki ([4]; hek293)	IC50 [5]	Ki [5]	IC50 ([1]; read-out: IC50) [µM]	Ki ([1]; read-out: Ki) [µM]	IC50 ([3]; read-out: IC50) [µM]	Ki ([3]; read-out: Ki) [µM]	IC50 ([4]; read-out: IC50) [µM]	Ki ([4]; read-out: Ki) [µM]
STANNOUS FLUORIDE	Not Active	Not Active	Not Active	Not Active	Not Active	Not Active	Not Active	Not Active	Not Active	Not Active	Not Active	Not Active						
C[C@@H](O)[C@H]1C(=O)N2C(C(=O)O)=C(S[C@@H]3CN[C@H](C(=O)N(C)C)C3)[C@H](C)[C@H]12 [MEROPENEM]	Not Active		Not Active		Not Active	Not Active	Not Active		Not Active		Not Active							
COc1ncnc(NS(=O)(=O)c2ccc(N)cc2)c1OC [SULFADOXINE]	Not Active		Not Active		Not Active	Not Active	Not Active		Not Active		Not Active							
CCCc1nn(C)c2c(=O)[nH]c(-c3cc(S(=O)(=O)N4CCN(C)CC4)ccc3OCC)nc12	Not Active		Not Active		Not Active	Not Active	Not Active		Not Active		Not Active							
COc1ccc(/C=C/C(=O)Nc2ccccc2C(=O)O)cc1OC	Not Active		Not Active		Not Active	Not Active	Not Active		Not Active		Not Active							
CC1=C(CC(=O)O)c2cc(F)ccc2/C1=C\c1ccc(S(C)(=O)=O)cc1 [EXISULIND]	Not Active		Not Active		Not Active	Not Active	Not Active		Not Active		Not Active							
CN1C2CCCC1CC(NC(=O)c1nn(C)c3ccccc13)C2 (stereo not drawn) [GRANISETRON]	Not Active		Not Active				Not Active		Not Active		Not Active							
Cc1cn([C@H]2C[C@H](N=[N+]=[N-])[C@@H](CO)O2)c(=O)[nH]c1=O [ZIDOVUDINE]	Not Active		Not Active		Not Active	Not Active	Not Active		Not Active		Not Active							
OCCN1CCN(CCCN2c3ccccc3Sc3ccc(C(F)(F)F)cc32)CC1 [FLUPHENAZINE]			Not Active								Not Active		29.5	22.1	3.47	0.484	24	8.47
CC(C)(C)NC[C@H](O)COc1nsnc1N1CCOCC1 [TIMOLOL]			Not Active		Not Active	Not Active	Not Active		Not Active		Not Active		0.452	0.339				
Nc1nc2c(c(=O)[nH]1)N(C=O)C(CNc1ccc(C(=O)N[C@@H](CCC(=O)O)C(=O)O)cc1)CN2 (stereo partly drawn) [LEUCOVORIN]	Not Active		Not Active		Not Active	Not Active	Not Active		Not Active		Not Active							
O=c1n(CCCN2CCN(c3cccc(Cl)c3)CC2)nc2ccccn12 [TRAZODONE]	Not Active		Not Active				Not Active		Not Active		Not Active							
COc1cc(C(=O)NS(=O)(=O)c2ccccc2C)ccc1Cc1cn(C)c2ccc(NC(=O)OC3CCCC3)cc12 [ZAFIRLUKAST]	Not Active		Not Active		Not Active	Not Active	Not Active		Not Active		Not Active							
CCOC(N)=O	Not Active		Not Active		Not Active	Not Active	Not Active		Not Active		Not Active							
CN(CCOc1ccc(CC2SC(=O)NC2=O)cc1)c1ccccn1 (stereo not drawn) [ROSIGLITAZONE]	Not Active		Not Active		Not Active	Not Active	Not Active		Not Active		Not Active							
CC(=O)O[C@H]1C[C@@H]2CC[C@@H]3[C@H](CC[C@@]4(C)[C@H]3C[C@H]([N+]3(C)CCCCC3)[C@@H]4OC(C)=O)[C@@]2(C)C[C@@H]1N1CCCCC1.[Br-] [VECURONIUM BROMIDE]	Not Active		Not Active		Not Active	Not Active	Not Active		Not Active		Not Active							
Nc1ccc(S(=O)(=O)Nc2ncccn2)cc1 [SULFADIAZINE]	Not Active		Not Active		Not Active	Not Active	Not Active		Not Active		Not Active							
CCS(=O)(=O)CCn1c([N+](=O)[O-])cnc1C [TINIDAZOLE]	Not Active		Not Active		Not Active	Not Active	Not Active		Not Active		Not Active							
Nc1ccc(S(=O)(=O)Nc2nccs2)cc1 [SULFATHIAZOLE]	Not Active		Not Active		Not Active	Not Active	Not Active		Not Active		Not Active							
O=C(O)C(Cl)(Cl)Cl [TRICHLOROACETIC ACID]	Not Active		Not Active		Not Active	Not Active	Not Active		Not Active		Not Active							
CC(C)OC(=O)C(C)(C)Oc1ccc(C(=O)c2ccc(Cl)cc2)cc1 [FENOFIBRATE]			Not Active				Not Active		Not Active		Not Active		124	93				
CCN(CC)CC#CCOC(=O)C(O)(c1ccccc1)C1CCCCC1 (stereo not drawn) [OXYBUTYNIN]	Not Active		Not Active						Not Active		Not Active							
CC(=O)Nc1nnc(S(N)(=O)=O)s1 [ACETAZOLAMIDE]	Not Active		Not Active				Not Active		Not Active		Not Active							
CC[C@@H](CO)NC(=O)[C@@H]1C=C2c3cccc4c3c(cn4C)C[C@H]2N(C)C1 [METHYSERGIDE]	Not Active		Not Active				Not Active		Not Active		Not Active							
O=c1[nH]c2ccccc2n1CCCN1CCC(n2c(=O)[nH]c3cc(Cl)ccc32)CC1 [DOMPERIDONE]	Not Active		Not Active				Not Active		Not Active		Not Active							
